Active and inactive are the calls of the source. No cut-off for these calls is given here.
Key:
[1] = Drug concentration in mouse heart at 15 mg/kg, iv measured at 7 hrs; assay type: ADME, organism-based; details: read-out: Ct
[2] = Drug concentration in mouse plasma at 30 mg/kg, po measured at 24 hrs; assay type: ADME, organism-based
[3] = Toxicity in BALB/c mouse assessed as maximum tolerated dose at IV measured for 7 days; details: in vivo, time 7 day
[4] = Drug concentration in mouse kidney at 15 mg/kg, iv measured at 24 hrs; assay type: ADME, organism-based; details: read-out: Ct
CT26 [5] = assay: Antitumor activity against mouse CT26 cells implanted in BALB/c mouse assessed as tumor growth inhibition at 50 to 100 mg/kg, po administered for 14 days in presence of celecoxib; assay type: functional, organism-based; details: dose 50-100 mg/kg, time 14.0 day
[6] = Drug concentration in mouse kidney at 30 mg/kg, po measured at 7 hrs; assay type: ADME, organism-based; details: read-out: Ct
KPC2 = assay: Antitumor activity against mouse KPC2 cells implanted in FVB mouse assessed as reduction in tumor burden at 25 mg/kg, po measured after 14 days; assay type: functional, organism-based; details: time 14.0 day
CT26 [7] = assay: Antitumor activity against mouse CT26 cells implanted in BALB/c mouse assessed as increase in animal survival at 100 mg/kg, po measured after 14 days; assay type: functional, organism-based; details: time 14.0 day
[8] = Drug concentration in mouse kidney at 15 mg/kg, iv measured at 7 hrs; assay type: ADME, organism-based; details: read-out: Ct
CT26 [9] = assay: Antitumor activity against mouse CT26 cells implanted in BALB/c mouse assessed as increase in cleaved caspase-3 level at 50 mg/kg, po measured after 14 days; assay type: functional, organism-based; details: time 14.0 day
[10] = Toxicity in BALB/c mouse assessed as stomach damage at 20 mg/kg, po measured after 29 days by H and E staining based analysis; assay type: organism-based; details: in vivo, 696 h, time 29 day
[11] = Drug concentration in mouse liver at 15 mg/kg, iv measured at 24 hrs; assay type: ADME, organism-based; details: read-out: Ct
[12] = Drug concentration in mouse heart at 30 mg/kg, po measured at 24 hrs; assay type: ADME, organism-based; details: read-out: Ct
CT26 [13] = assay: Antitumor activity against mouse CT26 cells implanted in BALB/c mouse assessed as inhibition of tumor growth at 100 mg/kg, po measured after 14 days; assay type: functional, organism-based; details: time 14.0 day
[14] = Drug concentration in mouse liver at 15 mg/kg, iv measured at 7 hrs; assay type: ADME, organism-based; details: read-out: Ct
[15] = Toxicity in BALB/c mouse assessed as liver damage at 20 mg/kg, po measured after 29 days by H and E staining based analysis; assay type: organism-based; details: in vivo, 696 h, time 29 day
[16] = Toxicity in BALB/c mouse assessed as heart damage at 20 mg/kg, po measured after 29 days by H and E staining based analysis; assay type: organism-based; details: in vivo, 696 h, time 29 day
[17] = Toxicity in BALB/c mouse assessed as kidney damage at 20 mg/kg, po measured after 29 days by H and E staining based analysis; assay type: organism-based; details: in vivo, 696 h, time 29 day
[18] = Toxicity in BALB/c mouse assessed as lung damage at 20 mg/kg, po measured after 29 days by H and E staining based analysis; assay type: organism-based; details: in vivo, 696 h, time 29 day
[19] = Drug concentration in mouse kidney at 30 mg/kg, po measured at 24 hrs; assay type: ADME, organism-based; details: read-out: Ct
[20] = Toxicity in BALB/c mouse assessed as pancrease damage at 20 mg/kg, po measured after 29 days by H and E staining based analysis; assay type: organism-based; details: in vivo, 696 h, time 29 day
[21] = Drug concentration in mouse liver at 30 mg/kg, po measured at 24 hrs; assay type: ADME, organism-based; details: read-out: Ct
[22] = Drug concentration in mouse plasma at 30 mg/kg, po measured at 7 hrs; assay type: ADME, organism-based
[23] = Drug concentration in mouse liver at 30 mg/kg, po measured at 7 hrs; assay type: ADME, organism-based; details: read-out: Ct
Panc02 = assay: Antitumor activity against mouse Panc02 cells xenografted in C57BL/6 mouse assessed as tumor growth inhibition at 20 to 40 mg/kg, ip measured for 21 to 28 days; assay type: functional, organism-based; details: dose 20-40 mg/kg, time 21-28 day
HCT-116 = assay: Induction of apoptosis in human HCT-116 cells assessed as upregulation of cleaved PARP level measured for 48 hrs by Western blot analysis; assay type: functional, cell-based; details: dose 10.0 µM
CT26 [24] = assay: Antitumor activity against mouse CT26 cells implanted in BALB/c mouse assessed as increase in cleaved PARP level at 140 mg/kg, po administered for 3 days; assay type: functional, organism-based; details: time 3.0 day

## N[C@@H]1[C@H]2CN(c3cnc(C(=O)Nc4cc(F)cc5cccnc45)cn3)C[C@@H]12
[1]
  concentration at 7 h: 882 ng/g
[2]
  concentration at 24 h: 7 ng/mL
[3]
  MTD at 168 h: 140 mg/kg
[4]
  concentration at 24 h: 53 ng/g
CT26 [5]
  TGI: Active
[6]
  concentration at 7 h: 6100 ng/g
KPC2
  Activity: Active
CT26 [7]
  Activity: Active
[8]
  concentration at 7 h: 2690 ng/g
CT26 [9]
  Activity: Active
[10]
  Activity: Non-toxic
[11]
  concentration at 24 h: 48 ng/g
[12]
  concentration at 24 h: 57 ng/g
CT26 [13]
  TGI: Active
[14]
  concentration at 7 h: 2140 ng/g
[15]
  Activity: Non-toxic
[16]
  Activity: Non-toxic
[17]
  Activity: Non-toxic
[18]
  Activity: Non-toxic
[19]
  concentration at 24 h: 137 ng/g
[20]
  Activity: Non-toxic
[21]
  concentration at 24 h: 92 ng/g
[22]
  concentration at 7 h: 293 ng/mL
[23]
  concentration at 7 h: 5530 ng/g
Panc02
  TGI: Active
HCT-116
  Activity: Dose-dependent-effect
CT26 [24]
  Activity: Active

— ChEMBL document CHEMBL6109128, “Copper-KRAS-COX2 Axis: A Therapeutic Vulnerability in Pancreatic Cancer” (J Med Chem, 2025)
